Patent US4374040A, “Aminoalkylenephosphonic acids and salts thereof and their use in aqueous systems” (Buckman Laboratories, Inc., priority 1980, dated 1983)

Experiments:
[1] = Calcium Carbonate Antiprecipitation Tests; conditions: 18 hours, 25° C.
Protocol: To evaluate the effect of the aminoalkylenephosphonic acids of this invention on the precipitation of calcium carbonate, measured volumes of stock solution (prepared with demineralized water) of the phosphonic acids or their sodium salts were added to 100 ml. portions of a calcium chloride solution (0.2936 g. CaCl2.2H2 O per 100 ml. of solution). Then 100 ml. of a sodium bicarbonate solution (0.168 g. NaHCO3 per 100 ml. of solution) was added to each portion of calcium chloride solution. The test solutions were then agitated on a gyratory shaker table for 18 hours at a temperature of 25° C. At the end of this time, insoluble material was removed by filtration through a Millipore membrane filter, and the calcium ion concentration in the filtrate was determined with an atomic absorption spectrophotometer. […] The compounds tested were as follows:
A. Tetrahydro-N,N-bis(phosphonomethyl)-3-thiophenamine 1,1-dioxide (30 percent)
B. Thirty percent solution of the trisodium salt of A
D. Tetrahydro-N,N,N',N'-tetrakis(phosphonomethyl)-3,4-thiophenediamine 1,1-dioxide (30 percent)
E. 3-Hydrazinotetrahydro-N,N-bis(phosphonomethyl)thiophene 1,1-dioxide (30 percent)
F. Tetrahydro-N-(2-hydroxyethyl)-N-(phosphonomethyl)-3-thiophenamine 1,1-dioxide (30 percent)

[2] = Calcium Sulfate Antiprecipitation Tests; conditions: pH 7, 18 hours, 50° C.
Protocol: Inhibition of calcium sulfate precipitation by the aminoalkylenephosphonic acids of this invention was evaluated by adding the desired volumes of stock solutions of the phosphonic acids or their sodium salts (prepared with demineralized water) to 10-ml. aliquots of a calcium chloride solution containing 162.9 g. of CaCl2 per liter. The volume of each was made up to 175 ml. with demineralized water, and the pH was adjusted to 7.0 with dilute NaOH or HCl. A 25-ml. aliquot of a sodium sulfate solution (83.84 g. Na2 SO4 per liter) was then added to each. The test solutions were maintained for 18 hours at a temperature of 50° C. A portion of each was filtered while still hot to remove insoluble materials and the filtrate was analyzed for calcium by means of an atomic absorption instrument. The percent inhibition was calculated and the results are included in Table 2.

[3] = Barium Sulfate Antiprecipitation Tests; conditions: pH 7; for Percent inhibition of barium sulfate precipitation: 18 hours, 25° C.
Protocol: To evaluate the effect of the aminoalkylenephosphonic acids of this invention in inhibiting the precipitation of barium sulfate, the desire volumes of stock solutions of the phosphonic acids or their sodium salts (prepared with demineralized water) were added to 10-ml. aliquots of a barium chloride solution containing 5.35 g. BaCl2.H2 O per liter. The volume of each was made up to 175 ml. with demineralized water, and the pH was adjusted to 7.0 with dilute NaOH or HCl. A 25-ml. aliquot of a sodium sulfate solution (1.24 g. Na2 SO4 per liter) was then added to each. The test solutions were agitated on a gyratory shaker table for 18 hours at 25° C. At the end of this time, insoluble material was removed by filtration and the barium ion concentration was determined with an atomic absorption unit. The percent inhibition was calulated and the results are included in Table 3. Compound C was described in Example 15 and Compound H was described in Example 16. Compound I was an aqueous solution containing 22.5 percent of the trisodium salt of tetrahydro-N,N-bis(phosphonomethyl)-3-thiophenamine 1,1-dioxide and 7.5 percent of a poly(acrylic acid) having a molecular weight of about 4000. Compound J was an aqueous solution containing 7.5 percent of tetrahydro-N,N-bis(phosphononmethyl)-3-thiophenamine 1,1-dioxide and 22.5 percent of a poly(acrylic acid) having a molecular weight of about 4000. Since the percent inhibition results were lower that those obtainined in Examples 15 and 16, a well known scale inhibitor was included in this test for comparison.

Row | SMILES | percent inhibition of calcium carbonate precipitation ([1]; pH 8.5, 1 parts per million) [%] | percent inhibition of calcium carbonate precipitation ([1]; pH 8.5, 3 parts per million) [%] | percent inhibition of calcium carbonate precipitation ([1]; pH 8.5, 5 parts per million) [%] | percent inhibition of calcium carbonate precipitation ([1]; pH 8.5, 10 parts per million) [%] | percent inhibition of calcium carbonate precipitation ([1]; pH 8.5, 25 parts per million) [%] | percent inhibition of calcium carbonate precipitation ([1]; pH 8.5, 50 parts per million) [%] | percent inhibition of calcium carbonate precipitation ([1]; pH 9.0, 1 parts per million) [%] | percent inhibition of calcium carbonate precipitation ([1]; pH 9.0, 3 parts per million) [%] | percent inhibition of calcium carbonate precipitation ([1]; pH 9.0, 5 parts per million) [%] | percent inhibition of calcium carbonate precipitation ([1]; pH 9.0, 10 parts per million) [%] | percent inhibition of calcium carbonate precipitation ([1]; pH 9.0, 25 parts per million) [%] | percent inhibition of calcium carbonate precipitation ([1]; pH 9.0, 50 parts per million) [%] | Percent inhibition of calcium sulfate precipitation ([2]; 1 parts per million) [%] | Percent inhibition of calcium sulfate precipitation ([2]; 3 parts per million) [%] | Percent inhibition of calcium sulfate precipitation ([2]; 5 parts per million) [%] | Percent inhibition of calcium sulfate precipitation ([2]; 10 parts per million) [%] | Percent inhibition of calcium sulfate precipitation ([2]; 25 parts per million) [%] | Percent inhibition of calcium sulfate precipitation ([2]; 50 parts per million) [%] | other results
1 | O=P(O)(O)CN(CP(=O)(O)O)C1CCS(=O)(=O)C1 (centres unmarked) [B] | 92 | 87 | 92 | 91 | 93 | 94 | 9 | 11 | 89 | 85 | 16 | 86 | 40 | 52 | 55 | 78 | 95 | 100 | 
2 | O=P(O)(O)CN(CP(=O)(O)O)C1CS(=O)(=O)CC1N(CP(=O)(O)O)CP(=O)(O)O (centres unmarked) [D, Tetrahydro-N,N,N',N'-tetrakis(phosphonomethyl)-3,4-thiophenediamine 1,1-dioxide] | 78 | 73 | 73 | 71 | 70 | 70 |  |  |  |  |  |  |  |  |  |  |  |  | 
3 | O=P(O)(O)CN(CP(=O)(O)O)C1CCS(=O)(=O)C1 (centres unmarked) [A, Tetrahydro-N,N-bis(phosphonomethyl)-3-thiophenamine 1,1-dioxide] | 83 | 84 | 78 | 85 | 73 | 71 |  |  |  |  |  |  |  |  |  |  |  |  | 
4 | O=P(O)(O)CN(CCO)C1CCS(=O)(=O)C1 (centres unmarked) [F, Tetrahydro-N-(2-hydroxyethyl)-N-(phosphonomethyl)-3-thiophenamine 1,1-dioxide] | 27 | 25 | 27 | 25 | 38 | 32 |  |  |  |  |  |  | 41 | 38 | 39 | 43 | 61 | 88 | 
5 | O=P(O)(O)CN(CP(=O)(O)O)CP(=O)(O)O [Compound K, nitrilotris(methylenephosphonic acid)] |  |  |  |  |  |  |  |  |  |  |  |  |  |  |  |  |  |  | Percent inhibition of barium sulfate precipitation ([3]; 5 parts per million): 5%; Percent inhibition of barium sulfate precipitation ([3]; 10 parts per million): 5%; Percent inhibition of barium sulfate precipitation ([3]; 25 parts per million): 6%; Percent inhibition of barium sulfate precipitation ([3]; 50 parts per million): 12%; effectiveness in inhibiting barium sulfate precipitation, compared with the combinations ([3]; in words): less than that of the combinations containing tetrahydro-N,N-bis(phosphonomethyl)-3-thiophenamine 1,1-dioxide
6 | O=P(O)(O)CN(CP(=O)(O)O)NC1CCS(=O)(=O)C1 (centres unmarked) [E, 3-Hydrazinotetrahydro-N,N-bis(phosphonomethyl)thiophene 1,1-dioxide] | 82 | 82 | 77 | 79 | 100 | 91 | 78 | 79 | 79 | 79 | 70 | 86 | 38 | 38 | 38 | 38 | 40 | 45 | 
